Measured values as given in the supplement of paper PMC11061612.

How the values were obtained:
[1] = system: SW756 (Cervical Carcinoma); assay: combination Emax (second highest fraction inhibited in the dose matrix, 72 h); higher = more inhibition; extreme values may be limits of the assay
In short: (§1)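 Bliss excess equals the observed combination effect minus the expected value EA + EB − EA·EB, where EA and EB are the effects of each agent alone. Combination Emax is the second-highest inhibition within the matrix. Inhibition was scaled from CellTiter-Glo 2.0 luminescence, with 0 set by vehicle wells and 1 by blank wells, after 72 hours of two-drug dosing of cells plated in 1536-well plates.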

[2] = system: DB (B-Cell Non-Hodgkin's Lymphoma); assay: as above
In short: as §1

[3] = system: DMS-273 (Small Cell Lung Carcinoma); assay: as above
In short: as §1

[4] = system: MDA-MB-231 (Breast Carcinoma); assay: as above
In short: as §1

[5] = system: C3A (Hepatocellular Carcinoma); assay: as above
In short: as §1

[6] = system: HT-29 (Colorectal Carcinoma); assay: as above
In short: as §1

[7] = system: COR-L95 (Small Cell Lung Carcinoma); assay: as above
In short: as §1

[8] = system: NALM-6 (B-Lymphoblastic Leukemia); assay: as above
In short: as §1

[9] = system: NCI-H1781 (Lung Adenocarcinoma); assay: as above
In short: as §1

DSH1 (Bladder Carcinoma) [10] = assay: as above
In short: as §1

[11] = system: KM-H2 (Hodgkin's Lymphoma); assay: as above
In short: as §1

[12] = system: CFPAC-1 (Pancreatic Carcinoma); assay: Bliss excess, mean over the matrix (fraction); higher = more synergy
In short: as §1

[13] = system: KARPAS-620 (Plasma Cell Myeloma); assay: as above
In short: as §1

[14] = system: JiyoyeP-2003 (Burkitt's Lymphoma); assay: as above
In short: as §1

[15] = system: 697 (B-Lymphoblastic Leukemia); assay: as above
In short: as §1

[16] = system: COR-L95 (Small Cell Lung Carcinoma); assay: as above
In short: as §1

[17] = system: LS-513 (Colorectal Carcinoma); assay: as above
In short: as §1

DSH1 (Bladder Carcinoma) [18] = assay: as above
In short: as §1

RH-1 (Ewing's Sarcoma) = assay: as above
In short: as §1

[19] = system: HPAC (Pancreatic Carcinoma); assay: as above
In short: as §1

Row | SMILES | combination Emax [1] | combination Emax [2] | combination Emax [3] | combination Emax [4] | combination Emax [5] | combination Emax [6] | combination Emax [7] | combination Emax [8] | combination Emax [9] | combination Emax (DSH1 (Bladder Carcinoma) [10]) | combination Emax [11] | Bliss excess [12] | Bliss excess [13] | Bliss excess [14] | Bliss excess [15] | Bliss excess [16] | Bliss excess [17] | Bliss excess (DSH1 (Bladder Carcinoma) [18]) | Bliss excess (RH-1 (Ewing's Sarcoma)) | Bliss excess [19]
1 | COc1nnc2ccc(N3CCC(c4ccc(OCCN5CCN(C)C(=O)[C@H]5C)cc4)CC3)nn12 [AZD5153] + Cn1cnc2c(F)c(Nc3ccc(Br)cc3Cl)c(C(=O)NOCCO)cc21 [Selumetinib] (first compound max 1 µM, 7x7, partner max 10 µM) | 0.534 | 0.761 | 0.71 | 0.73 | 0.777 | 0.848 | 0.218 | 0.886 | 0.327 | 0.683 | 0.299 | -0.0149 | 0.112 | -0.0117 | -0.0389 | -0.0561 | -0.0213 | -0.0458 | -0.0267 | 0.0161
2 | Cc1cc2ncnn2cc1Nc1ncc2c(n1)n(C1CCOCC1)c(=O)n2C [AZD7648] + O=C(c1cc(Cc2n[nH]c(=O)c3ccccc23)ccc1F)N1CCN(C(=O)C2CC2)CC1 [Olaparib] (first compound max 10 µM, 7x7, partner max 10 µM) | 0.157 | 0.451 | 0.553 | 0.266 | 0.232 | 0.0989 | 0.363 | 0.513 | 0.413 | 0.272 | 0.349 | -0.0567 | -0.0306 | 0.0339 | 0.0076 | -0.0158 | -0.0387 | 0.0328 | -0.0115 | -0.0261
3 | NC1(C(=O)N[C@@H](CCO)c2ccc(Cl)cc2)CCN(c2ncnc3[nH]ccc23)CC1 [Capivasertib] + CCN(CCO)CCCOc1ccc2c(Nc3cc(CC(=O)Nc4cccc(F)c4)[nH]n3)ncnc2c1 [AZD2811] (first compound max 10 µM, 7x7, partner max 1 µM) | 0.287 | 0.635 | 0.906 | 0.349 | 0.307 | 0.427 | 0.172 | 0.907 | 0.799 | 0.668 | 0.362 | 0.0281 | 0.0272 | -0.0303 | -0.0593 | -0.0075 | -0.0771 | -0.0694 | 0.0222 | -0.049
4 | NC1(C(=O)N[C@@H](CCO)c2ccc(Cl)cc2)CCN(c2ncnc3[nH]ccc23)CC1 [Capivasertib] + C[C@@H]1COCCN1C2=NC(=NC(=C2)C3(CC3)[S@](=N)(=O)C)C4=C5C=CNC5=NC=C4 [AZD6738] (first compound max 10 µM, 7x7, partner max 10 µM) | 0.428 | 0.424 | 0.856 | 0.74 | 0.551 | 0.834 | 0.542 | 0.984 | 0.685 | 0.848 | 0.879 | -0.0224 | -0.0384 | -0.0698 | -0.0173 | -0.0644 | -0.0697 | -0.064 | -0.0098 | -0.0425
5 | NC1(C(=O)N[C@@H](CCO)c2ccc(Cl)cc2)CCN(c2ncnc3[nH]ccc23)CC1 [Capivasertib] + COc1nnc2ccc(N3CCC(c4ccc(OCCN5CCN(C)C(=O)[C@H]5C)cc4)CC3)nn12 [AZD5153] (first compound max 10 µM, 7x7, partner max 1 µM) | 0.413 | 0.669 | 0.884 | 0.703 | 0.478 | 0.753 | 0.399 | 0.945 | 0.527 | 0.941 | 0.546 | 0.0332 | -0.0154 | -0.0714 | -0.065 | -0.0272 | -0.0246 | -0.0394 | 0.0517 | 0.0657
6 | CC(=O)c1c(C)c2cnc(Nc3ccc(N4CCNCC4)cn3)nc2n(C2CCCC2)c1=O [Palbociclib] + CC1(C)CCC(CN2CCN(c3ccc(C(=O)NS(=O)(=O)c4ccc(NCC5CCOCC5)c([N+](=O)[O-])c4)c(Oc4cnc5[nH]ccc5c4)c3)CC2)=C(c2ccc(Cl)cc2)C1 [Venetoclax] (first compound max 10 µM, 7x7, partner max 1 µM) | 0.0569 | 0.962 | 0.351 | 0.408 | 0.447 | 0.399 | 0.709 | 0.933 | 0.118 | 0.439 | 0.383 | 0.015 | 0.0056 | 0.0975 | -0.0738 | -0.0581 | 0.0202 | -0.0361 | 0.0175 | -0.0619
7 | CC1(C)CCC(CN2CCN(c3ccc(C(=O)NS(=O)(=O)c4ccc(NCC5CCOCC5)c([N+](=O)[O-])c4)c(Oc4cnc5[nH]ccc5c4)c3)CC2)=C(c2ccc(Cl)cc2)C1 [Venetoclax] + C=CCn1c(=O)c2cnc(Nc3ccc(N4CCN(C)CC4)cc3)nc2n1-c1cccc(C(C)(C)O)n1 [AZD1775] (first compound max 1 µM, partner max 1 µM) | 0.436 | 1 | 0.749 | 0.481 | 0.572 | 0.89 | 0.862 | 1 | 0.449 | 0.48 | 0.974 | -0.0185 | 0.0191 | -0.0263 | 0.0509 | 0.001 | -0.0581 | -0.0476 | -0.0123 | -0.0565
